Usually ED50 stands for the dose that gives a 50% effect, or the effect in half of the subjects. In general, Ki refers to a measure of affinity in units of concentration, obtained from inhibition or displacement. Higher therefore signals weaker binding.

The record followed here is patent publication US5428042A, “1-(2H-1-oxo-3,4-dihydronaphtyl-6-yl)-acetyl-piperidines as kappa agonists” (Dr Lo Zambeletti S.p.A., priority 1990, dated 1995).

Where a name gives a salt, the structure may show the parent alone.

Test [1] in a line: P-phenylquinone-induced abdominal writhing test in mice (analgesia, mouse writhing, graded). It counts as in vivo, mouse (male Charles River, Swiss Strain). The settings on record: sc, 20 min, 20 min pretreatment, p-phenylquinone 2 mg/Kg i.p., 8 min observation. From the text: The pharmacological activity of the compounds of this invention is illustrated by the mouse writhing test, described as follows:
P-phenylquinone-induced abdominal writhing test in mice
The methodology employed is based on that described by Sigmund et al, Proc. Soc. Exptl. Biol. 95, 729/1957, modified by Milne and Twomey, Agents and Actions, 10, 31/1980.
Male Charles River mice (Swiss Strain), 25-36 g body weight, were used. Animals were allowed food and water ad libitum and were randomized into groups of 10 prior to experimentation. Test compounds were dissolved in either distilled water or distilled water plus 0.1M AMS, and administered by the subcutaneous route in a final volume of 10 ml/Kg. Control animals received 10 ml/Kg of the appropriate vehicle alone. Following a pretreatment period of 20 min., mice were injected intraperitoneally with p-phenylquinone, 2 mg/Kg at 37° C. in a final volume of 10 mg/kg. […] During this period the number of abdominal writhing responses per animal were recorded where writhing consists of an intermittent contraction of the abdomen associated with hind leg extension.
The degree of antinociceptive protection afforded by the test compound was determined as the mean number of writhing responses observed in the treated group (T) expressed as a percentage of the mean number of writhing responses in the control group (C) according to the following formula:
[1-(T/C]×100%=% graded protection
For orientation: An intraperitoneal irritant provokes the stretching counted in writhing tests.

A further test concerns the target T1, kappa brain receptor (Cavia porcellus, UniProt P41144).
T1 construct: fresh guinea pig brain homogenates; from tissue; host or cells: guinea pig whole brain without cerebellum, fresh homogenate
In words: Kappa brain receptor binding (binding to kappa sites). The settings on record: guinea pig brain homogenate, tritiated kappa selective compound, 40 min, 25° C. The protocol: Radio receptor binding to kappa site is performed on fresh guinea pig brain homogenates prepared according to Kosterlitz (1981).
Whole brain without cerebellum is homogenized in 50 mM Tris-buffer (pH 7.4 at 0° C.) and centrifuged at 49,000×g for 10 min.
The pellet is then resuspended in the same buffer, incubated at 37° C. for 45 min and centrifuged again.
1.9 ml of the final homogenate (1:100 in Tris pH 7.4, 0° C.) is used for the binding assay.
The binding to the kappa sites is performed using a tritiated kappa selective compound. Final homogenate with solutions of the cold ligand and of the labelled ligand is incubated for 40 min at 25° C., filtered through Whatman GF/C glass filter discs and washed. The radioactivity bound to the filters is counted by liquid scintillation spectrophotometry.
The non-specific binding is determined in the presence of 500 nM of the benzomorphan non-selective compound Mr 2266.
The equilibrium dissociation constant […] and the maximum binding capacity (Bmax) are determined from the analysis of saturation curves, while the inhibition constant (Ki) is determined from the analysis of competition experiments (Hill 1910; Scatchard 1949; Cheng and Prusoff 1973; Gillan et al 1980).

T1 sequence (P41144 whole entry): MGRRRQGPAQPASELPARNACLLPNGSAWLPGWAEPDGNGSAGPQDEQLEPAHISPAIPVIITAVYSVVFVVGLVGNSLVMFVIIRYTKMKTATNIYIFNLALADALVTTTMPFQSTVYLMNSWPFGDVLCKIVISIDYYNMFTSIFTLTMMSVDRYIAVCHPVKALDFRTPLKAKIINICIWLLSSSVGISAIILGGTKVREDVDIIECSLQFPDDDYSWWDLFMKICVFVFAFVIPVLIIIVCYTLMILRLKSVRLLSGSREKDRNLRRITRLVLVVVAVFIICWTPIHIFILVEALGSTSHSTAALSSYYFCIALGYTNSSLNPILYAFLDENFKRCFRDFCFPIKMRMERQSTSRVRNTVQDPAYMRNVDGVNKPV

On to `CCN(CC)C[C@@H]1CCCCN1C(=O)Cc1ccc2c(c1)CCCC2=O` [Example 3, (2S)-1-[1-oxo-3,4-dihydro-(2H)-napht-6-yl]acetyl-2-diethylaminomethyl piperidine hydrochloride], for which the ED50 in test [1] worked out at 0.427 mg/kg.
For `CC(C)N(C)C[C@@H]1CCCCN1C(=O)Cc1ccc2c(c1)CCCC2=O` [Example 10, (2S)-1-[1-oxo-3,4-dihydro-(2H)-napht-6-yl]acetyl-2-(N-methyl-N-isopropyl)aminomethyl piperidine hydrochloride emihydrate], the ED50 in test [1] is 0.078 mg/kg. The same compound came in with a Ki at kappa brain receptor of 0.00287 µM.
As to `CN(C[C@@H]1CCCCN1C(=O)Cc1ccc2c(c1)CCCC2=O)C1CC1` [Example 12, (2S)-1-[1-oxo-3,4-dihydro-(2H)-napht-6-yl]acetyl-2-(N-cyclopropyl-N-methyl)aminomethyl piperidine hydrochloride], the median effective dose (ED50) in test [1] came out at 0.141 mg/kg. This compound yielded a Ki at kappa brain receptor of 0.05 µM.
For `CCCN(C)C[C@@H]1CCCCN1C(=O)Cc1ccc2c(c1)CCCC2=O` [Example 9, (2S)-1-[1-oxo-3,4-dihydro-(2H)-napht-6-yl]acetyl-2-(N-methyl-N-propyl)aminomethyl piperidine hydrochloride], the 50% effective dose (ED50) in test [1] amounted to 0.221 mg/kg. The same compound gave an inhibition constant (Ki) on kappa brain receptor of 0.01 to 0.05 µM.
In the case of `CN(C)C[C@@H]1CCCCN1C(=O)Cc1ccc2c(c1)CCCC2=O` [Example 1, (2S)-1-[1-oxo-3,4-dihydro-(2H)-napht-6-yl]acetyl-2-dimethyl-aminomethyl piperidine hydrochloride], the ED50 in test [1] stood at 0.154 mg/kg.
Same read-out and setting: in the case of `CN(C[C@@H]1CCCCN1C(=O)Cc1ccc2c(c1)CCCC2=O)C1CCCC1` [Example 18, (2S)-1-[1-oxo-3,4-dihydro-(2H)-napht-6-yl]acetyl-2-(N-cyclopentyl-N-methyl)aminomethyl piperidine hydrochloride .1/4 H2 O] it was 0.21 mg/kg.
Turning to `CN(C)CC1CC(C)(C)CCN1C(=O)Cc1ccc2c(c1)CCCC2=O` (racemic) [Example 5, (±)-1-[1-oxo-3,4-dihydro-(2H)-napht-6-yl]acetyl-2-dimethylaminomethyl-4,4-dimethyl piperidine hydrochloride], the ED50 in test [1] stood at 0.377 mg/kg. This compound also registered a Ki on kappa brain receptor of 0.065 µM.
In the case of `C#CCN(C)C[C@@H]1CCCCN1C(=O)Cc1ccc2c(c1)CCCC2=O` [Example 16, (2S)-1-[1-oxo-3,4-dihydro-(2H)-napht-6-yl]acetyl-2-(N-methyl-N-propargyl)aminomethyl piperidine hydrochloride], the 50% effective dose (ED50) in test [1] stood at 0.056 mg/kg.
`CCN(C)C[C@@H]1CCCCN1C(=O)Cc1ccc2c(c1)CCCC2=O` [Example 2, (2S)-1-[1-oxo-3,4-dihydro-(2H)-napht-6-yl]acetyl-2-(N-methyl-N-ethyl)aminomethyl piperidine hydrochloride]: in test [1], the median effective dose (ED50) is 0.061 mg/kg.
As for `CN(C)C[C@@H]1CC(C)(C)CCN1C(=O)Cc1ccc2c(c1)CCCC2=O` [Example 15, (-)-1-[1-oxo-3,4-dihydro-(2H)-napht-6-yl]acetyl-2-dimethylaminomethyl-4,4-dimethylpiperidine D(-) tartrate], the 50% effective dose (ED50) in test [1] amounted to 0.115 mg/kg. For the same compound, at kappa brain receptor, the inhibitory constant (Ki) came to 0.0229 µM.
With `CN(C[C@@H]1CCCCN1C(=O)Cc1ccc2c(c1)CCCC2=O)C1CCC1` [Example 17, (2S)-1-[1-oxo-3,4-dihydro-(2H)-napht-6-yl]acetyl-2-(N-cyclobutyl-N-methyl)aminomethyl piperidine hydrochloride], the 50% effective dose (ED50) in test [1] was 0.127 mg/kg.
As to `CN(C)CC1CCC(C)(C)CN1C(=O)Cc1ccc2c(c1)CCCC2=O` (racemic) [Example 6, (±)-1-[1-oxo-3,4-dihydro-(2H)-napht-6-yl]acetyl-2-dimethylaminomethyl-5,5-dimethyl piperidine hydrochloride], the ED50 in test [1] amounted to 0.641 mg/kg. Besides, the inhibition constant Ki on kappa brain receptor amounted to 0.0887 µM.
As to `C=CCN(C)C[C@@H]1CCCCN1C(=O)Cc1ccc2c(c1)CCCC2=O` [Example 11, (2S)-1-[1-oxo-3,4-dihydro-(2H)-napht-6-yl]acetyl-2-(N-allyl-N-methyl)aminomethyl piperidine hydrochloride], the 50% effective dose (ED50) in test [1] was determined as 0.13 mg/kg. The same compound showed an inhibitory constant (Ki) at kappa brain receptor of roughly 0.05 µM.
